Source: PMC5343058 (The Korean Journal of Physiology & Pharmacology : Official …, 2017)

Target: T1, hSlo3+hLRRC52 (Homo sapiens, UniProt A8MYU2)
T1 sequence (A8MYU2 1-1149): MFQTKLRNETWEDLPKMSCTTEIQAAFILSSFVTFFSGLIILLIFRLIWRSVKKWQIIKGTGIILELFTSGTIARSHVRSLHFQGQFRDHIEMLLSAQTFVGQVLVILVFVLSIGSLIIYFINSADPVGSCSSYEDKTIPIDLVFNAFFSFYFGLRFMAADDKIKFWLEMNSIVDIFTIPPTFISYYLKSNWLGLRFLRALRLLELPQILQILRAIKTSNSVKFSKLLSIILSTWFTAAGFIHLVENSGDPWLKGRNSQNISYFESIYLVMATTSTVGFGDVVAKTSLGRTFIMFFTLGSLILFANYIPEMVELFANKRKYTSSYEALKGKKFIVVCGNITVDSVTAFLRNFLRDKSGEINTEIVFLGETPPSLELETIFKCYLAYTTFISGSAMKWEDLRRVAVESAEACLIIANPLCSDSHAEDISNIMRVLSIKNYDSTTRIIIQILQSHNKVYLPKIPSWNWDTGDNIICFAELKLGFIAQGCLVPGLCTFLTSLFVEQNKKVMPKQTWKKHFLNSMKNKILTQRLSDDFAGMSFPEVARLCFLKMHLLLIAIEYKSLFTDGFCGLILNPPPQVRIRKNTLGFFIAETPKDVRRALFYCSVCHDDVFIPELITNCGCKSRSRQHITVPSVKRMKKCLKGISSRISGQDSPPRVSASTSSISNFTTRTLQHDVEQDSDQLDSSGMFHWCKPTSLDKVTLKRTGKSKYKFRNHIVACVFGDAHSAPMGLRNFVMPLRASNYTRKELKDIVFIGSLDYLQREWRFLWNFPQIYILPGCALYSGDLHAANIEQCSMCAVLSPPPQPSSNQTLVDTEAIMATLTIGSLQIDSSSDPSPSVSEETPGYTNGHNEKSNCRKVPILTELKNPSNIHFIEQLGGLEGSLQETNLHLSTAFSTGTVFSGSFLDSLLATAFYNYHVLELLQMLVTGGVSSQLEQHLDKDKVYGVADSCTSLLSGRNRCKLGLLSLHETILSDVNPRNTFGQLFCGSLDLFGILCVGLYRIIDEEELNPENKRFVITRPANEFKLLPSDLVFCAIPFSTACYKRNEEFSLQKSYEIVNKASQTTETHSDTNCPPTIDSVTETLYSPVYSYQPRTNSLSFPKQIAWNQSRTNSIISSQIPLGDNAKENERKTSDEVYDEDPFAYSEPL
T1 sequence (Q8N7C0 24-313 partner): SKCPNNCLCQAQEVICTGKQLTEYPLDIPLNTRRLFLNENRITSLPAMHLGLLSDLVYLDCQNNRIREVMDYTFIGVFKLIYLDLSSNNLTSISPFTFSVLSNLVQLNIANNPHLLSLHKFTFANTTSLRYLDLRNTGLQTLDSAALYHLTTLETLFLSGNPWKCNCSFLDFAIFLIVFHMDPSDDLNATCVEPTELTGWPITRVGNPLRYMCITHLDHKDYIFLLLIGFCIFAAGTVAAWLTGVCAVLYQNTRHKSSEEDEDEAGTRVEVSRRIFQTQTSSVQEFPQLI
Assay: whole-cell patch clamp, HEK293, voltage ramp
Type: cell-based
Conditions: HEK293, read-out: % inhibition at 20 mM

inhibition at 20000 µM: 41 ± 5.19%
Structure (SMILES): CC[N+](CC)(CC)CC [TEA]
